In patent publication US6573293B2, “Pyrrole substituted 2-indolinone protein kinase inhibitors” (Sugen, Inc., priority 2000, dated 2003):

How the values were obtained:
[1] = molecular target: T1, EGFR (Homo sapiens, UniProt P00533); experiment: cell EGF assay; assay type: cell-based
T1 construct: A431 cell lysate (SUGEN, Inc.); host or cells: A431
Experimental: Several of the assays described herein are performed in an ELISA (Enzyme-Linked Immunosorbent Sandwich Assay) format (Voller, et al., 1980, “Enzyme-Linked Immunosorbent Assay,” Manual of Clinical Immunology, 2d ed., Rose and Friedman, Am. Soc. Of Microbiology, Washington, D.C., pp. 359-371). The general procedure is as follows: a compound is introduced to cells expressing the test kinase, either naturally or recombinantly, for a selected period of time after which, if the test kinase is a receptor, a ligand known to activate the receptor is added. The cells are lysed and the lysate is transferred to the wells of an ELISA plate previously coated with a specific antibody recognizing the substrate of the enzymatic phosphorylation reaction. Non-substrate components of the cell lysate are washed away and the amount of phosphorylation on the substrate is detected with an antibody specifically recognizing phosphotyrosine compared with control cells that were not contacted with a test compound.

[2] = molecular target: T2, GST-Flk1 (Mus musculus, UniProt P35918); experiment: GST-FLK-1 bioassay (bio flkGST); assay type: biochemical
T2 construct: GST-Flk1cd purified from sf9 recombinant baculovirus transformation; host or cells: Sf9 (baculovirus)

[3] = molecular target: T1, EGFR; experiment: EGFR bioassay (bio EGF); assay type: biochemical
[4] = molecular target: T3, HER-2 kinase (Homo sapiens, UniProt P04626); experiment: Cellular HER-2 kinase assay; assay type: cell-based; details: read-out: Her2 Kinase IC50
T3 construct: Use EGFr/HER-2 chimera/3T3-C7 cell line for this assay; It is expressed in mouse NIH 3T3 clone C7 cells; P00533 (Epidermal growth factor receptor)

[5] = molecular target: T4, PDGFR-β (Homo sapiens, UniProt P09619); experiment: PDGFR bioassay (bio PDGF); assay type: biochemical
T4 construct: host or cells: NIH 3T3
T4 sequence (P09619 33-1106): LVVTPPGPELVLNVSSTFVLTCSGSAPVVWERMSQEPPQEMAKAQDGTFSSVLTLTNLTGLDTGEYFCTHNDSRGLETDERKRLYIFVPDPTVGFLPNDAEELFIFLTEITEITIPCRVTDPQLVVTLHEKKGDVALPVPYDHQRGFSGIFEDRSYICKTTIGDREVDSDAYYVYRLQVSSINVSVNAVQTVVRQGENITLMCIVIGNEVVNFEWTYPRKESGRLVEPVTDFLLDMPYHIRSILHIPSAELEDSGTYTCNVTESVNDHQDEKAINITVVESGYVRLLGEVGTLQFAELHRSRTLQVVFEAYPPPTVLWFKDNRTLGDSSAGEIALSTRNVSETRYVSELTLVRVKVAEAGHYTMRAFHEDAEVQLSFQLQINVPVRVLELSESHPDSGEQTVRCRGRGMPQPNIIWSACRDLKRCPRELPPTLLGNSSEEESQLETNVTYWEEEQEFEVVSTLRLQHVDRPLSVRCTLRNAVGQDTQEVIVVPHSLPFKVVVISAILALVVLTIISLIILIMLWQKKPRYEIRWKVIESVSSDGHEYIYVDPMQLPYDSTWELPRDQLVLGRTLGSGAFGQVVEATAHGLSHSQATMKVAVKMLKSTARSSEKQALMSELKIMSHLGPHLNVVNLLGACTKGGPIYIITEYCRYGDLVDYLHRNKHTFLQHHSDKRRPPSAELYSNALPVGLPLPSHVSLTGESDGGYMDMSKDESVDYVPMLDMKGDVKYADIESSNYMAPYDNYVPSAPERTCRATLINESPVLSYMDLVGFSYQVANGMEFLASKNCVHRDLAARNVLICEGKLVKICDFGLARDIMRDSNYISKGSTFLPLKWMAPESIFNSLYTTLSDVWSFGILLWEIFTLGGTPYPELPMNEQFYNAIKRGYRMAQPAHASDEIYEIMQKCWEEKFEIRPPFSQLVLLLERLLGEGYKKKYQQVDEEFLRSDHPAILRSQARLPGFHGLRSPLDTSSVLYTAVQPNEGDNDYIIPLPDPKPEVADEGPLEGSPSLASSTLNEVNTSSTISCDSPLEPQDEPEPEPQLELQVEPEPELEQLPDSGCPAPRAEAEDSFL

T3 sequence (P04626 720-987 limits assumed): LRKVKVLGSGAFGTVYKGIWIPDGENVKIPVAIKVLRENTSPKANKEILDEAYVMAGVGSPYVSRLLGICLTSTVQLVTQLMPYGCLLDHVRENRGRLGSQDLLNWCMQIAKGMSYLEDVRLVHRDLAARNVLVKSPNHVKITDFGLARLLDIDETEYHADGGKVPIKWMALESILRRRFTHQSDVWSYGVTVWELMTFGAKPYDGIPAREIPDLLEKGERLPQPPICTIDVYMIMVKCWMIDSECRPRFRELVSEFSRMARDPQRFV
T2 sequence (P35918 784-1345 limits assumed): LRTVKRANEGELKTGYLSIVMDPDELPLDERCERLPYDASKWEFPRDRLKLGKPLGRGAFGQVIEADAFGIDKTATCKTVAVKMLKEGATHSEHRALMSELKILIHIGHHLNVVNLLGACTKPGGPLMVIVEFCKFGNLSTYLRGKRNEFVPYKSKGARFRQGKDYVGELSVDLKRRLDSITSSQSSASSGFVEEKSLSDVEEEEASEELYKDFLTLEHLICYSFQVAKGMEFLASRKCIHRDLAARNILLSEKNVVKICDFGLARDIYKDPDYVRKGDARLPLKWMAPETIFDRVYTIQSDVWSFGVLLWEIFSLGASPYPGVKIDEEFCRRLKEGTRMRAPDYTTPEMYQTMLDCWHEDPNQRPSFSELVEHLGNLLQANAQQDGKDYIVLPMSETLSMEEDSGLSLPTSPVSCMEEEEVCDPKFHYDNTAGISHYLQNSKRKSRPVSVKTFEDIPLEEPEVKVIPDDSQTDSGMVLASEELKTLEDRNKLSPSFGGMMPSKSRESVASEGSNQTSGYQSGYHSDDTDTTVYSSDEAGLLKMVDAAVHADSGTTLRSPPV
T1 sequence (P00533 25-1210): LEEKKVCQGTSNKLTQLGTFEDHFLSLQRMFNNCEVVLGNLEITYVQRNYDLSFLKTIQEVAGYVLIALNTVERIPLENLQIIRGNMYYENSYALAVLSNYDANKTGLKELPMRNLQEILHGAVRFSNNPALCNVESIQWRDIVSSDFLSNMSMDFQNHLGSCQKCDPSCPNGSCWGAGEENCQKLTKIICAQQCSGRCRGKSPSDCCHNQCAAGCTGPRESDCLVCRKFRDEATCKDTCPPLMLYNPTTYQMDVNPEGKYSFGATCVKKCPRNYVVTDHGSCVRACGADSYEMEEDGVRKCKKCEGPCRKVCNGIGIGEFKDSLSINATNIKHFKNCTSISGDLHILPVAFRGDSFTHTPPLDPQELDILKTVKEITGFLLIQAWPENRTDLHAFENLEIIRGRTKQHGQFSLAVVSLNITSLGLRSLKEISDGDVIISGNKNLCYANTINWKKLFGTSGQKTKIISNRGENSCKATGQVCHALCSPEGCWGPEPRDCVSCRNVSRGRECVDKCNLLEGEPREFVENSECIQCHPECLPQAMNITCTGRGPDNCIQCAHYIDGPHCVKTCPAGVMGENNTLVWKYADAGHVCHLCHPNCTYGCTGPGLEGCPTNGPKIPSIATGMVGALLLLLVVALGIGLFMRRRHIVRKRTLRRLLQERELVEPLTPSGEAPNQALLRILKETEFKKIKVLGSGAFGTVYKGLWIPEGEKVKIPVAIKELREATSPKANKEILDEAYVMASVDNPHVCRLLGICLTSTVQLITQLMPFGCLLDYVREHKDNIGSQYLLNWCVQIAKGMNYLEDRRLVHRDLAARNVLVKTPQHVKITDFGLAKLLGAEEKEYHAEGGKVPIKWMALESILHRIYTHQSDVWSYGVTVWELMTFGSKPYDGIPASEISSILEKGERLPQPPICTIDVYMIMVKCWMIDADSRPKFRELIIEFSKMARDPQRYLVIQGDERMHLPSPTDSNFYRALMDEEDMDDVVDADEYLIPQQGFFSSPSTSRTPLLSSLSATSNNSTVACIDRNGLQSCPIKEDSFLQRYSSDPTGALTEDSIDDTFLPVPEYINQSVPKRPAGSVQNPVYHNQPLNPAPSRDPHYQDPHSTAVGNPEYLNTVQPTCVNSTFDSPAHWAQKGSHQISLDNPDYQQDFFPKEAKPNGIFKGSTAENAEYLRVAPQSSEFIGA

| IC50 [1] | IC50 [2] | IC50 [3] | IC50 [4] | IC50 [5] | SMILES |
| --- | --- | --- | --- | --- | --- |
| 20.3 µM |  |  |  |  | Cc1[nH]c(/C=C2\C(=O)Nc3ccc(Cl)cc32)c(C)c1C(=O)NCCN(C)C [Example 50, 5-(5-Chloro-2-oxo-1,2-dihydroindol-3-ylidenemethyl)-2,4-dimethyl-1H-pyrrole-3-carboxylic acid (2-dimethylamino-ethyl)amide] |
| 11.8 µM | < 0.05 µM | > 100 µM | 2.76 µM |  | Cc1[nH]c(/C=C2\C(=O)Nc3ccc(-c4ccccc4)cc32)c(C)c1C(=O)NCCCN(C)C [Example 66, 2,4-Dimethyl-5-(2-oxo-5-phenyl-1,2-dihydroindol-3-ylidenemethyl)-1H-pyrrole-3-carboxylic acid (3-dimethylamino-propyl)amide] |
|  | 45.7 µM | > 100 µM | > 100 µM | 5.94 µM | CC(=O)c1c(/C=C2\C(=O)Nc3ccc(Br)cc32)[nH]c(C(=O)NCCCO)c1C [Example 32, 4-Acetyl-5-(5-bromo-2-oxo-1,2-dihydroindol-3-ylidenemethyl)-3-methyl-1H-pyrrole-2-carboxylic acid (3-hydroxy-propyl)amide] |
| 9.76 µM | 1.98 µM | 23.9 µM | 7.02 µM |  | COc1ccccc1-c1ccc2c(c1)NC(=O)/C2=C\c1[nH]c(C)c(C(=O)NCCN(C)C)c1C [Example 54, 5-[6-(2-Methoxy-phenyl)-2-oxo-1,2-dihydroindol-3-ylidenemethyl)-2,4-dimethyl-1H-pyrrole-3-carboxylic acid (2-dimethylamino-ethyl)amide] |
| 43.9 µM |  |  |  |  | Cc1[nH]c(/C=C2\C(=O)Nc3cc(-c4ccccc4)ccc32)c(C)c1C(=O)NCCN(C)C [Example 49, 2,4-Dimethyl-5-(2-oxo-6-phenyl-1,2-dihydroindol-3-ylidenemethyl)-1H-pyrrole-3-carboxylic acid (2-dimethylamino-ethyl)amide] |
|  | 13 µM | > 100 µM | 66 µM | 42.4 µM | CCN(CC)CCCNC(=O)c1[nH]c(/C=C2\C(=O)Nc3cc(-c4ccccc4)ccc32)cc1C [Example 14, 3-Methyl-5-(2-oxo-6-phenyl-1,2-dihydroindol-3-ylidenemethyl)-1H-pyrrole-2-carboxylic acid (3-diethylaminopropyl)amide] |
|  | 4.5 µM | 53.7 µM | 2.67 µM | 71.3 µM | Cc1c(C(=O)NCCCN2CCCC2)[nH]c(/C=C2\C(=O)Nc3ccc(F)cc32)c1C(=O)c1ccccc1 [Example 28, 4-Benzoyl-5-(5-fluoro-2-oxo-1,2-dihydroindol-3-ylidenemethyl)-3-methyl-1H-pyrrole-2-carboxylic acid (3-pyrrolidin-1-ylpropyl)amide] |
| 41.2 µM | 11.5 µM | > 100 µM | 8 µM |  | CCN(CC)CCNC(=O)c1[nH]c(/C=C2\C(=O)Nc3cc(-c4cccnc4)ccc32)c2c1CCCC2 [Example 20, 3-(2-Oxo-6-pyridin-3-yl-1,2-dihydroindol-3-ylidenemethyl)-4,5,6,7-tetrahydro-2H-isoindole-1-carboxylic acid (2-diethylaminoethyl)amide] |
|  | 1.2 µM | 46.8 µM | > 100 µM | 0.09 µM | Cc1[nH]c(/C=C2\C(=O)Nc3ccc(Br)cc32)c(C)c1C(=O)NCc1ccncc1 [Example 74, 5-(5-Bromo-2-oxo-1,2-dihydroindol-3-ylidenemethyl)-2,4-dimethyl-1H-pyrrole-3-carboxylic acid (pyridin-4-ylmethyl)amide] |
|  | 3.33 µM | 5.11 µM | 3.01 µM | 19.2 µM | COc1ccc(C(C)C)cc1-c1ccc2c(c1)NC(=O)/C2=C\c1[nH]c(C)c(C(=O)NCCN2CCCC2)c1C [Example 76, 5-[6-(5-Isopropyl-2-methoxy-phenyl)-2-oxo-1,2-dihydroindol-3-ylidenemethyl]-2,4-dimethyl-1H-pyrrole-3-carboxylic acid (2-pyrrolidin-1-yl-ethyl)amide] |
|  | > 50 µM | > 100 µM | > 100 µM | > 100 µM | CC(=O)c1c(/C=C2\C(=O)Nc3ccc(Br)cc32)[nH]c(C(=O)NCCN2CCOCC2)c1C [Example 34, 4-Acetyl-5-(5-bromo-2-oxo-1,2-dihydroindol-3-ylidenemethyl)-3-methyl-1H-pyrrole-2-carboxylic acid (2-morpholin-4-yl-ethyl)amide] |
| 9.23 µM | 2.67 µM | 2.57 µM | 4.99 µM |  | CCN(CC)CCCNC(=O)c1[nH]c(/C=C2\C(=O)Nc3ccc(Br)cc32)c2c1CCCC2 [Example 18, 3-(5-Bromo-2-oxo-1,2-dihydroindol-3-ylidenemethyl)-4,5,6,7-tetrahydro-2H-isoindole-1-carboxylic acid (3-diethylaminopropyl)amide] |
|  | 1.49 µM | 27.4 µM | > 100 µM | > 100 µM | Cc1[nH]c(/C=C2\C(=O)Nc3cc(-c4cccc(C(C)C)c4)ccc32)c(C)c1C(=O)NCCN1CCCC1 [Example 79, 5-[6-(3-Isopropyl-phenyl)-2-oxo-1,2-dihydroindol-3-ylidenemethyl]-2,4-dimethyl-1H-pyrrole-3-carboxylic acid (2-pyrrolidin-1-yl-ethyl)amide] |
|  | > 20 µM | > 100 µM | > 100 µM | > 100 µM | CC(=O)c1c(/C=C2\C(=O)Nc3ccc(Br)cc32)[nH]c(C(=O)NCCc2ccc(O)cc2)c1C [Example 36, 4-Acetyl-5-(5-bromo-2-oxo-1,2-dihydroindol-3-ylidenemethyl)-3-methyl-1H-pyrrole-2-carboxylic acid [2-(4-hydroxy-phenyl)-ethyl]amide] |
| 7.82 µM | 4.04 µM | 3.26 µM | 2.43 µM |  | Cc1cc(C(=O)NCCCN2CCCC2)[nH]c1/C=C1\C(=O)Nc2ccc(Br)cc21 [Example 6, 5-(5-Bromo-2-oxo-1,2-dihydroindol-3-ylidenemethyl)-4-methyl-1H-pyrrole-2-carboxylic acid (3-pyrrolidin-1-ylpropyl)amide] |
|  | 0.21 µM | > 100 µM | > 100 µM | 0.18 µM | CCN(CC)CCNC(=O)c1c(C)[nH]c(/C=C2\C(=O)Nc3cc(C(=O)O)ccc32)c1C [Example 81, 3-[4-(2-diethylaminoethylcarbamoyl)-3,5-dimethyl-1H-pyrrol-2-ylmethylene]-2-oxo-2,3-dihydro-1H-indole-6-carboxylic acid] |
| 34.2 µM | 7.5 µM | 6.86 µM | 8.37 µM |  | O=C1Nc2ccc(Br)cc2/C1=C/c1[nH]c(C(=O)NCCCN2CCCC2)c2c1CCCC2 [Example 19, 3-(5-Bromo-2-oxo-1,2-dihydroindol-3-ylidenemethyl)-4,5,6,7-tetrahydro-2H-isoindole-1-carboxylic acid (3-pyrrolidin-1-ylpropyl)amide] |
|  | 0.49 µM | > 100 µM | > 100 µM | 25 µM | CCc1ccc(-c2ccc3c(c2)NC(=O)/C3=C\c2[nH]c(C)c(C(=O)NCCN3CCCC3)c2C)cc1 [Example 77, 5-[6-(4-Ethyl-phenyl)-2-oxo-1,2-dihydroindol-3-ylidenemethyl]-2,4-dimethyl-1H-pyrrole-3-carboxylic acid (2-pyrrolidin-1-yl-ethyl)amide] |
|  | 10.1 µM | 26.7 µM | 3.98 µM | > 100 µM | CCN(CC)CCCNC(=O)c1[nH]c(/C=C2\C(=O)Nc3ccc(Br)cc32)c(C(C)=O)c1C [Example 29, 4-Acetyl-5-(5-bromo-2-oxo-1,2-dihydroindol-3-ylidenemethyl)-3-methyl-1H-pyrrole-2-carboxylic acid (3-diethylaminopropyl)amide] |
| 30 µM | 1.71 µM |  |  |  | COc1ccccc1-c1ccc2c(c1)NC(=O)/C2=C\c1[nH]c(C)c(C(=O)NCCN(C)C)c1-c1ccccc1 [Example 45, 5-[6-(2-Methoxy-phenyl)-2-oxo-1,2-dihydroindol-3-ylidenemethyl]-2-methyl-4-phenyl-1H-pyrrole-3-carboxylic acid (2-dimethylamino-ethyl)amide] |
|  | 7.18 µM | 40.3 µM | 27.7 µM | > 100 µM | CCN(CC)CCCNC(=O)c1[nH]c(/C=C2\C(=O)Nc3ccc(Br)cc32)c(C(=O)c2ccccc2)c1C [Example 21, 4-Benzoyl-5-(5-bromo-2-oxo-1,2-dihydroindol-3-ylidenemethyl)-3-methyl-1H-pyrrole-2-carboxylic acid (3-diethylaminopropyl)amide] |
|  | 2.7 µM | > 100 µM | > 100 µM | 61.6 µM | CCCCc1ccc(-c2ccc3c(c2)NC(=O)/C3=C\c2[nH]c(C)c(C(=O)NCCN3CCCC3)c2C)cc1 [Example 75, 5-[6-(4-Butyl-phenyl)-2-oxo-1,2-dihydroindol-3-ylidenemethyl]-2,4-dimethyl-1H-pyrrole-3-carboxylic acid (2-pyrrolidin-1-yl-ethyl)amide] |
